# Data taken from patent US12440467B2, “Treatment and prevention of infections using vegetable oil-derived polyols” (priority 2021, dated 2025).
# Target: T1, CD4-gp120 complex (Human immunodeficiency virus type 1 group M subtype B, UniProt P04578)
# T1 construct: recombinant gp120 (5 μg, Sigma-Aldrich); purchased Sigma-Aldrich (gp120); R&D Systems (CD4)
# Assay: Immunoprecipitation / Western blot of CD4-gp120 complex formation
# Format: binding, HIV
# Details: increasing concentration, Polyol:CD4-gp120 1:1000, 1:100, 1:10; polyol alone
# Protocol: Immunoprecipitation studies conducted in the presence or absence of the linseed oil-derived polyol were performed to evaluate the impact of the polyol on the formation of the CD4-gp120 complex. A commercially available immunoprecipitation kit consisting of protein G-coated agarose beads (Invitrogen) was used, and immunoprecipitations were conducted according to the manufacturer's protocol. Briefly, the gp120 antibody (5 μg, Sigma-Aldrich) was bound to the protein G-coated agarose beads (50 μl) by placing the antibody and protein G agarose beads in 1.5 ml Eppendorf centrifuge tubes and incubated at room temperature for 10 minutes with rotation. The tubes were placed on the magnet (Life Technologies) and the supernatant was removed. […] The samples were heated for 5 minutes at 95° C., then placed on the magnet, the supernatants were collected and analyzed via western blot. […]
# A standard western blot technique was used to evaluate the impact of the polyol on CD4-gp120 complex formation. […] Protein bands on the membrane were detected by chemiluminescence (Femto, ThermoFisher) and imaged on X-ray film (ThermoFisher). The blotted protein was quantified using the Image J software to measure the density, and the values were normalized to an untreated sample.
# The inhibitory effect of the linseed oil-derived polyol on the formation of CD4 and […] complex was evaluated with immunoprecipitation (IP). […]
compound,measurement,value
CCC(O)C(O)CC(O)C(O)CC=CCCCCCCCC(=O)OC (stereo not shown) [linseed oil-derived polyol],effect on CD4-gp120 complex formation (gp120 bands),reduced the CD4-gp120 complex formation
